Source: patent publication US8569382B2, “Isolated compounds from Phaleria macrocarpa as anti-cancer agents” (PT. Dexa Medica, priority 2008, dated 2013)
Values after ≈ are worked out from the molar mass of the structure shown.

How the values were obtained:
Format in all cases: cell-based
[1] = tested on: MDA-MB-231 cancer cells; test: Anti-proliferation assay of MDA-MB-231 cancer cells (MTT); settings: for effect on proliferation of MDA-MB-231 cells (percentage of alive cancer cell): with increase of concentration, FIG. 7 (F1), FIG. 8 (E2.2)
Method: (§1) In this assay, the effect of E2.2 and F1 compounds as anti proliferation and E2.2 compound as apoptosis inducer against MDA-MB-231 cancer cells will be observed. MDA-MB-231 cells were cultured in supplemented medium cells, and then incubated at temperature 37° C., 5% CO2.
This assay was performed in 96-well plates. Each well contained certain cancer cell density. After incubation for 24 hours, medium was changed into serum free medium, after that it was added with E2.2 compound sample as a single agent in various concentrations, so was with F1 compound. Cells were then re-incubated and after that the number of alive cells after treatment was determined by cell death determination assay. Absorbance value was read in microplate reader. After the absorbance value was converted with standard curve, the number of alive and death cells can be obtained.
Percentage of the number of alive cells in each treatment can be counted by counting the number of alive cells at wells that received treatment divided with the number of alive cells at healthy control and multiplied with 100%. % The number of alive cells=B/A×100% Notes: A is the number of alive cells at healthy control, and B is the number of alive cells that received treatment. IC50 value is a number showing a sample concentration that causes death as much as 50% in a population. Such value is obtained using BioStat statistical program. b. DNA Fragmentation Analysis Method

[2] = tested on: MDA-MB-231 cells; test: DNA fragmentation analysis (DNA Apoptosis Ladder Kit, gel electrophoresis); settings: MDA-MB-231 cells, 50, 75, and 100 μg/mL; FIG. 9
Method: as §1
Apoptosis is an active process of cell death marked with DNA chromosome cleavage, chromatin condensation, and also DNA fragmentation. In this experiment, it was observed the effect of E2.2 compound addition toward the formation of DNA fragmentation as one of apoptosis indicators. Cells were cultured in the plates. After incubation for 24 hours, it was added with E2.2 compound in various concentrations. DNA fragmentation determination was performed using DNA Apoptosis Ladder Kit.

[3] = tested on: BCl2 mRNA expression; test: BCl2 RT-PCR in MDA-MB-231 cells; settings: various concentrations, serum free medium, FIGS. 10a, 10b
Method: (§2) BCl2 and Bax genes are genes acting in apoptosis process. To identify BCl2 and Bax mRNA expressions, RT-PCR (reverse-transcription PCR) was performed. MDA-MB-231 cancer cells were grown in plates and added with E2.2 compound samples as a single agent in various concentrations. Experiment condition was performed in serum free medium. RNA total was isolated from MDA-MB-231 cancer cells. RNA isolation products were quantified using spectrophotometer and visualized by agarose gel electrophoresis technique. The RNAs were then used in RT-PCR process using specific primers. RT-PCR process was performed in PCR machine with optimized condition.

[4] = tested on: Bax mRNA expression; test: Bax RT-PCR in MDA-MB-231 cells; settings: various concentrations, serum free medium, FIGS. 11a, 11b
Method: as §2

IC50 ([1]; Homo sapiens, MDA-MB-231 cells, MTT result, serum free medium, BioStat statistical program) | IC50 value ([1]; MDA-MB-231 cells, MTT result, serum free medium, BioStat statistical program) | SMILES | effect on proliferation of MDA-MB-231 cells (percentage of alive cancer cell) [1] | formation of DNA fragments (apoptosis marker) [2] | BCl2 mRNA expression [3] | Bax mRNA level [4]
36.9 µg/mL (≈ 142 µM) |  | COc1cc(O)c(C(=O)c2ccc(O)cc2)c(O)c1 [E2.2, 2,4′,6-trihydroxy-4-methoxybenzophenone] | anti proliferation effect | apoptosis inducer effect | downregulation | upregulation
 | 65.80 µg/mL (≈ 156 µM) | COc1cc(O)c(C(=O)c2ccc(O)cc2)c(O[C@@H]2O[C@H](CO)[C@@H](O)[C@H](O)[C@H]2O)c1 [F1, 4′,6-di-hydroxy-4-methoxybenzophenone-2-O-β-D-glycopyranoside] | anti proliferation effect |  |  | 
